Experimental data taken from article PMC6386482, “ASB20123: A novel C-type natriuretic peptide derivative for treatment of growth failure and dwarfism” (PLoS ONE, 2019).
Each block holds one compound with its values, some of them ahead of it. Ends that are not written are not given here. Peptide text beside a SMILES is read from it.

What was measured:
[1] = test system: Fgfr3^ach mice; conditions: cited from earlier work
Source text: (§1) In the previous study, we designed and evaluated some CNP/ghrelin chimeric peptides as novel CNP derivatives. […] In the current study, we prepared another novel CNP/ghrelin chimeric peptide ASB20123 and evaluated its pharmacological activities. ASB20123 is comp ...

[2] = test system: Crouzon syndrome mouse model; conditions: cited from earlier work
Source text: as §1

[3] = PK of CNP immunoreactivity after single subcutaneous administration in rats; format: in vivo, rat
[4] = Plasma CNP immunoreactivity after sc bolus in vehicles containing ECM in rats
Experimental: We prepared CNP(1–22) and ASB20123 dissolved in vehicles containing ECM and delivered them to rats as sc bolus injections at 0.58 mg/kg for evaluation of their in vivo effects (S2 Fig).

[5] = cited from earlier work
Source text: C-type natriuretic peptide (CNP) is a member of the natriuretic peptide (NP) family that also includes atrial natriuretic peptide (ANP) and brain natriuretic peptide (BNP). […] However, CNP is expressed in various tissues, such as the central nervous system, reproductive tract, bone, and endothelium of blood ...

[6] = PK of CNP immunoreactivity after single intravenous administration in rats; format: in vivo, rat
[7] = mouse, in vivo
Experimental: Three-week-old juvenile female ICR mice (n = 5 or 10/group) received ASB20123 sc bolus injections once daily for 8 weeks. Seven-week-old male SD rats (n = 5/group) received ASB20123 as multiple sc bolus injections or a continuous sc infusion using an osmotic mini-pump (ALZET osmotic pump, Durect Corporation, USA) for 1 or 12 weeks. Growth rate of each animal was monitored throughout the treatment and washout periods. Body weight, body (naso-anal) length, and tail length were measured weekly, and femoral and tibial lengths were measured with digital calipers on the final day. Osteocalcin concentration in mouse serum was measured as a marker of bone formation using commercially available ELISA kits (Mouse Osteocalcin EIA kit, Biomedical Technologies Inc., USA). Anti-ASB20123 antibody in mouse serum was measured using commercially available ELISA kits (Protein detector ELISA Kit, Kirkegaard & Perry Laboratories, Inc., USA) and ASB20123. The blood samples were collected from the posterior vena cava at the end of the dosing period and centrifuged to obtain serum samples. CNP immunoreactivity in rat plasma was determined by RIA as mentioned in the method of PK studies. The blood samples were collected from cervical vein at 15 min after sc bolus dosing or before necropsy for animals given a continuous sc infusion.

[8] = test system: female ICR mice; assay: Skeletal growth of mice given CNP(1–22) or human CNP(1–53) sc for 3 weeks; format: in vivo, mouse; conditions: subcutaneous administration for 3 weeks (S3 Fig)
Source text: Interstitial diffusion of macromolecules, such as HA and glycosaminoglycan, is affected by their physiochemical characteristics, including their size, charge, and hydrophilicity, as well as their interactions with the endogenous components present in the interstitium. Interaction between ASB20123 and the endogenous molecules might play a role in the diffusion and absorption processes. […] The C-terminal part of ASB20123 might interact with ECM components, such as HA and glycosaminoglycan, resulting in a delay of its absorption from the sc tissue to the circulation and improvement of its stability.
Supplementary file pone.0212680.s003.tif: S3 Fig Body weight and body length of female ICR mice subcutaneously administered CNP(1–22) and human CNP(1–53) for 3 weeks. (TIF) Click here for additional data file.

[9] = test system: neutral endopeptidase (NEP); conditions: cited from earlier work
[10] = anesthetized male SD rats, single sc 50 nmol/kg, plasma CNP immunoreactivity by RIA, mean of 3 rats
[11] = anesthetized male SD rats, single iv 20 nmol/kg, plasma CNP immunoreactivity by RIA, mean of 3 rats

Compound: BMN-111
Body length [1]: increased the body length
Body length [2]: increased the body length

Compound: CC[C@H](C)[C@@H]1NC(=O)[C@H](CCCNC(=N)N)NC(=O)[C@H](CC(=O)O)NC(=O)[C@H](CC(C)C)NC(=O)[C@H](CCCCN)NC(=O)[C@H](CC(C)C)NC(=O)CNC(=O)[C@H](Cc2ccccc2)NC(=O)[C@@H](NC(=O)CNC(=O)[C@H](CCCCN)NC(=O)[C@H](CO)NC(=O)[C@H](CC(C)C)NC(=O)CN)CSSC[C@@H](C(=O)O)NC(=O)CNC(=O)[C@H](CC(C)C)NC(=O)CNC(=O)[C@H](CO)NC(=O)[C@H](CCSC)NC(=O)[C@H](CO)NC(=O)CNC1=O [CNP(1–22), C-type natriuretic peptide]
BA ([3]; anesthetized male SD rats, single sc 50 nmol/kg, bioavailability, mean of 3 rats): 19%
AUC0→∞ [3, 10]: 152 pmol・min/mL
Cmax [3, 10]: 9.02 nM
MRT0→∞ [3, 10]: 13.9 min
T1/2 [3, 10]: 10.0 min
Tmax [3, 10]: 5.0 min
PK profile, effect of vehicle components ([4]; rats, sc bolus 0.58 mg/kg in vehicles containing ECM): not affected by its vehicle components
Clearance of exogenous peptide from the circulation [5]: rapidly cleared from the circulation
AUC0→∞ [6, 11]: 320 pmol・min/mL
CLtot [6, 11]: 63.9 mL/min/kg
MRT0→∞ [6, 11]: 1.02 min
T1/2 [6, 11]: 1.42 min
Vdss [6, 11]: 0.0642 L/kg

T1/2 ([3]; rat, in vivo, sc): 32.1 min
Tmax ([3]; rat, in vivo, sc): 20.0 min
Anti-ASB20123 antibody in serum [7]: not detected
Time to reach the maximum plasma CNP concentration (Cmax) ([4]; rat, in vivo, sc, 0.58 mg/kg): delayed
T1/2 ([6]; rat, in vivo, iv): 31.3 min
Vdss ([6]; rat, in vivo, iv): 0.429 L/kg
Vdss relative to that of CNP(1–22) ([6]; rat, in vivo, iv): 6.7 fold
Compound: CC[C@H](C)[C@@H]1NC(=O)[C@H](CCCNC(=N)N)NC(=O)[C@H](CC(=O)O)NC(=O)[C@H](CC(C)C)NC(=O)[C@H](CCCCN)NC(=O)[C@H](CC(C)C)NC(=O)CNC(=O)[C@H](Cc2ccccc2)NC(=O)[C@@H](NC(=O)CNC(=O)[C@H](CCCCN)NC(=O)[C@H](CO)NC(=O)[C@H](CC(C)C)NC(=O)CN)CSSC[C@@H](C(=O)N[C@H](C(=O)N[C@@H](CCC(N)=O)C(=O)N[C@@H](CCC(N)=O)C(=O)N[C@@H](CCCNC(=N)N)C(=O)N[C@@H](CCCCN)C(=O)N[C@@H](CC(=O)O)C(=O)N[C@@H](CO)C(=O)N[C@@H](CCCCN)C(=O)N[C@@H](CCCCN)C(=O)N2CCC[C@H]2C(=O)N2CCC[C@H]2C(=O)N[C@@H](C)C(=O)N[C@@H](CCCCN)C(=O)N[C@@H](CC(C)C)C(=O)N[C@@H](CCC(N)=O)C(=O)N2CCC[C@H]2C(=O)N[C@@H](CCCNC(=N)N)C(=O)O)C(C)C)NC(=O)CNC(=O)[C@H](CC(C)C)NC(=O)CNC(=O)[C@H](CO)NC(=O)[C@H](CCSC)NC(=O)[C@H](CO)NC(=O)CNC1=O [ASB20123] (HELM PEPTIDE1{G.L.S.K.G.C.F.G.L.K.L.D.R.I.G.S.M.S.G.L.G.C.V.Q.Q.R.K.D.S.K.K.P.P.A.K.L.Q.P.R}$PEPTIDE1,PEPTIDE1,6:R3-22:R3$$$V2.0)
AUC ([4]; rat, in vivo, sc, 0.58 mg/kg): higher than that when ASB20123 was dissolved in saline

Compound: CNP(1–53): 53-residue peptide generated from pro-CNP (DLRVDTKSRAAWARLLQEHPNARKYKGANKKGLSKGCFGLKLDRIGSMSGLGC; ends and bridges not checked; cysteine pairing not given here; UniProt P23582 74-126, looked up)
Skeletal growth compared to CNP(1–22) [8]: more potently than that induced by CNP(1–22) administration
Stability against neutral endopeptidase (NEP) [9]: resistant to proteolytic inactivation
